{
  "source": "patent US7968526B2",
  "about": "“Antisense oligonucleotides directed to ribonucleotide reductase R2 and uses thereof in the treatment of cancer” (Lorus Therapeutics Inc., priority 2003, dated 2011)",
  "test": "Tissue distribution in the rat (CE method)",
  "type": "in vivo",
  "protocol": "The toxicokinetics and tissue distribution of SEQ ID NO:1 (and related oligonucleotide metabolites obtained from exonuclease-mediated chain shortening) were determined in rats and monkeys. In addition to investigating the pharmacokinetics and tissue distribution of SEQ ID NO:1, the purpose of the studies was to correlate adverse effects in the animal studies to the concentrations of SEQ ID NO:1 (and metabolites) in tissue and blood. A capillary electrophoresis (CE) method was used to measure the concentrations of SEQ ID NO:1 (and metabolites) in plasma and tissues.\nThe concentrations of SEQ ID NO:1 (and related n+1, n−1 to n−15 oligonucleotide metabolites) in the following rat and monkey tissues were measured by a validated CE method (Southwest Bio-Labs, Inc.): kidney, liver, spleen, heart, lung, bone marrow (rat), lymph nodes (monkey) and brain tissues. The tissue samples were collected from the designated animals as described in the 21-day toxicity studies: rats, administered bolus intravenous injections of SEQ ID NO:1 every other day at 2, 10, or 50 mg/kg; and monkeys administered SEQ ID NO:1 by continuous intravenous infusion at 2, 10, or 50 mg/kg/day.",
  "key": {"[1]": {"details": "10 mg/kg bolus i.v. every other day, 4 hrs post last dose"}, "[2]": {"details": "10 mg/kg bolus i.v. every other day, 48 hrs post first dose"}, "[3]": {"details": "50 mg/kg bolus i.v. every other day, 4 hrs post first dose"}, "[4]": {"details": "50 mg/kg bolus i.v. every other day, 4 hrs post last dose"}, "[5]": {"details": "50 mg/kg bolus i.v. every other day, 48 hrs post first dose"}},
  "data": [
    {"substance": "5′-GGCTAAATCGCTCCACCAAG-3′ (all phosphorothioate, sugars by position and methylation of C not given here) [SEQ ID NO: 1, fully phosphorothioated antisense oligonucleotide that hybridizes to the coding region of R2 mRNA]", "values": [
      {"measurement": "Mean Concentration total metabolites (n + 1 through n − 13), Bone Marrow", "setting": "[1]", "result": 6.6, "unit": "µg/g"},
      {"measurement": "Mean Concentration total metabolites (n + 1 through n − 13), Brain", "setting": "[1]", "result": "BDL (below detectable limits (1 μg/g rat; 0.2 μg/g monkey))"},
      {"measurement": "Mean Concentration total metabolites (n + 1 through n − 13), Heart", "setting": "[1]", "result": 9.4, "unit": "µg/g"},
      {"measurement": "Mean Concentration total metabolites (n + 1 through n − 13), Kidney", "setting": "[1]", "result": 613.5, "unit": "µg/g"},
      {"measurement": "Mean Concentration total metabolites (n + 1 through n − 13), Liver", "setting": "[1]", "result": 105.9, "unit": "µg/g"},
      {"measurement": "Mean Concentration total metabolites (n + 1 through n − 13), Lung", "setting": "[1]", "result": 3.3, "unit": "µg/g"},
      {"measurement": "Mean Concentration total metabolites (n + 1 through n − 13), Spleen", "setting": "[1]", "result": 13.5, "unit": "µg/g"},
      {"measurement": "Mean Concentration SEQ ID NO: 1, Bone Marrow", "setting": "[2]", "result": "BDL (below detectable limits (1 μg/g rat; 0.2 μg/g monkey))"},
      {"measurement": "Mean Concentration SEQ ID NO: 1, Brain", "setting": "[2]", "result": "BDL (below detectable limits (1 μg/g rat; 0.2 μg/g monkey))"},
      {"measurement": "Mean Concentration SEQ ID NO: 1, Heart", "setting": "[2]", "result": "BDL (below detectable limits (1 μg/g rat; 0.2 μg/g monkey))"},
      {"measurement": "Mean Concentration SEQ ID NO: 1, Kidney", "setting": "[2]", "result": 13.3, "unit": "µg/g"},
      {"measurement": "Mean Concentration SEQ ID NO: 1, Liver", "setting": "[2]", "result": 4.7, "unit": "µg/g"},
      {"measurement": "Mean Concentration SEQ ID NO: 1, Lung", "setting": "[2]", "result": "BDL (below detectable limits (1 μg/g rat; 0.2 μg/g monkey))"},
      {"measurement": "Mean Concentration SEQ ID NO: 1, Spleen", "setting": "[2]", "result": "BDL (below detectable limits (1 μg/g rat; 0.2 μg/g monkey))"},
      {"measurement": "Mean Concentration total metabolites (n + 1 through n − 13), Bone Marrow", "setting": "[2]", "result": "BDL (below detectable limits (1 μg/g rat; 0.2 μg/g monkey))"},
      {"measurement": "Mean Concentration total metabolites (n + 1 through n − 13), Brain", "setting": "[2]", "result": "BDL (below detectable limits (1 μg/g rat; 0.2 μg/g monkey))"},
      {"measurement": "Mean Concentration total metabolites (n + 1 through n − 13), Heart", "setting": "[2]", "result": "BDL (below detectable limits (1 μg/g rat; 0.2 μg/g monkey))"},
      {"measurement": "Mean Concentration total metabolites (n + 1 through n − 13), Kidney", "setting": "[2]", "result": 68.4, "unit": "µg/g"},
      {"measurement": "Mean Concentration total metabolites (n + 1 through n − 13), Liver", "setting": "[2]", "result": 8.3, "unit": "µg/g"},
      {"measurement": "Mean Concentration total metabolites (n + 1 through n − 13), Lung", "setting": "[2]", "result": "BDL (below detectable limits (1 μg/g rat; 0.2 μg/g monkey))"},
      {"measurement": "Mean Concentration total metabolites (n + 1 through n − 13), Spleen", "setting": "[2]", "result": "BDL (below detectable limits (1 μg/g rat; 0.2 μg/g monkey))"},
      {"measurement": "Mean Concentration SEQ ID NO: 1, Bone Marrow", "setting": "[3]", "result": 13.2, "unit": "µg/g"},
      {"measurement": "Mean Concentration SEQ ID NO: 1, Brain", "setting": "[3]", "result": "BDL (below detectable limits (1 μg/g rat; 0.2 μg/g monkey))"},
      {"measurement": "Mean Concentration SEQ ID NO: 1, Heart", "setting": "[3]", "result": 14.5, "unit": "µg/g"},
      {"measurement": "Mean Concentration SEQ ID NO: 1, Kidney", "setting": "[3]", "result": 86.1, "unit": "µg/g"},
      {"measurement": "Mean Concentration SEQ ID NO: 1, Liver", "setting": "[3]", "result": 51.9, "unit": "µg/g"},
      {"measurement": "Mean Concentration SEQ ID NO: 1, Lung", "setting": "[3]", "result": 13.3, "unit": "µg/g"},
      {"measurement": "Mean Concentration SEQ ID NO: 1, Spleen", "setting": "[3]", "result": 32.7, "unit": "µg/g"},
      {"measurement": "Mean Concentration total metabolites (n + 1 through n − 13), Bone Marrow", "setting": "[3]", "result": 19.5, "unit": "µg/g"},
      {"measurement": "Mean Concentration total metabolites (n + 1 through n − 13), Brain", "setting": "[3]", "result": "BDL (below detectable limits (1 μg/g rat; 0.2 μg/g monkey))"},
      {"measurement": "Mean Concentration total metabolites (n + 1 through n − 13), Heart", "setting": "[3]", "result": 13.0, "unit": "µg/g"},
      {"measurement": "Mean Concentration total metabolites (n + 1 through n − 13), Kidney", "setting": "[3]", "result": 187, "unit": "µg/g"},
      {"measurement": "Mean Concentration total metabolites (n + 1 through n − 13), Liver", "setting": "[3]", "result": 79.9, "unit": "µg/g"},
      {"measurement": "Mean Concentration total metabolites (n + 1 through n − 13), Lung", "setting": "[3]", "result": 21.8, "unit": "µg/g"},
      {"measurement": "Mean Concentration total metabolites (n + 1 through n − 13), Spleen", "setting": "[3]", "result": 19.9, "unit": "µg/g"},
      {"measurement": "Mean Concentration SEQ ID NO: 1, Bone Marrow", "setting": "[4]", "result": 29.9, "unit": "µg/g"},
      {"measurement": "Mean Concentration SEQ ID NO: 1, Brain", "setting": "[4]", "result": "BDL (below detectable limits (1 μg/g rat; 0.2 μg/g monkey))"},
      {"measurement": "Mean Concentration SEQ ID NO: 1, Heart", "setting": "[4]", "result": 20.8, "unit": "µg/g"},
      {"measurement": "Mean Concentration SEQ ID NO: 1, Kidney", "setting": "[4]", "result": 286.6, "unit": "µg/g"},
      {"measurement": "Mean Concentration SEQ ID NO: 1, Liver", "setting": "[4]", "result": 91.6, "unit": "µg/g"},
      {"measurement": "Mean Concentration SEQ ID NO: 1, Lung", "setting": "[4]", "result": 18.2, "unit": "µg/g"},
      {"measurement": "Mean Concentration SEQ ID NO: 1, Spleen", "setting": "[4]", "result": 18.4, "unit": "µg/g"},
      {"measurement": "Mean Concentration total metabolites (n + 1 through n − 13), Bone Marrow", "setting": "[4]", "result": 67.4, "unit": "µg/g"},
      {"measurement": "Mean Concentration total metabolites (n + 1 through n − 13), Brain", "setting": "[4]", "result": "BDL (below detectable limits (1 μg/g rat; 0.2 μg/g monkey))"},
      {"measurement": "Mean Concentration total metabolites (n + 1 through n − 13), Heart", "setting": "[4]", "result": 42.5, "unit": "µg/g"},
      {"measurement": "Mean Concentration total metabolites (n + 1 through n − 13), Kidney", "setting": "[4]", "result": 1373.6, "unit": "µg/g"},
      {"measurement": "Mean Concentration total metabolites (n + 1 through n − 13), Liver", "setting": "[4]", "result": 279.7, "unit": "µg/g"},
      {"measurement": "Mean Concentration total metabolites (n + 1 through n − 13), Lung", "setting": "[4]", "result": 30.0, "unit": "µg/g"},
      {"measurement": "Mean Concentration total metabolites (n + 1 through n − 13), Spleen", "setting": "[4]", "result": 60.8, "unit": "µg/g"},
      {"measurement": "Mean Concentration SEQ ID NO: 1, Bone Marrow", "setting": "[5]", "result": 2.8, "unit": "µg/g"},
      {"measurement": "Mean Concentration SEQ ID NO: 1, Brain", "setting": "[5]", "result": "BDL (below detectable limits (1 μg/g rat; 0.2 μg/g monkey))"},
      {"measurement": "Mean Concentration SEQ ID NO: 1, Heart", "setting": "[5]", "result": 2.5, "unit": "µg/g"},
      {"measurement": "Mean Concentration SEQ ID NO: 1, Kidney", "setting": "[5]", "result": 48.2, "unit": "µg/g"},
      {"measurement": "Mean Concentration SEQ ID NO: 1, Liver", "setting": "[5]", "result": 19.8, "unit": "µg/g"},
      {"measurement": "Mean Concentration SEQ ID NO: 1, Lung", "setting": "[5]", "result": 2.1, "unit": "µg/g"},
      {"measurement": "Mean Concentration SEQ ID NO: 1, Spleen", "setting": "[5]", "result": 1.4, "unit": "µg/g"},
      {"measurement": "Mean Concentration total metabolites (n + 1 through n − 13), Bone Marrow", "setting": "[5]", "result": 4.4, "unit": "µg/g"},
      {"measurement": "Mean Concentration total metabolites (n + 1 through n − 13), Brain", "setting": "[5]", "result": "BDL (below detectable limits (1 μg/g rat; 0.2 μg/g monkey))"},
      {"measurement": "Mean Concentration total metabolites (n + 1 through n − 13), Heart", "setting": "[5]", "result": 7.2, "unit": "µg/g"},
      {"measurement": "Mean Concentration total metabolites (n + 1 through n − 13), Kidney", "setting": "[5]", "result": 287.6, "unit": "µg/g"},
      {"measurement": "Mean Concentration total metabolites (n + 1 through n − 13), Liver", "setting": "[5]", "result": 68.7, "unit": "µg/g"},
      {"measurement": "Mean Concentration total metabolites (n + 1 through n − 13), Lung", "setting": "[5]", "result": 3.8, "unit": "µg/g"},
      {"measurement": "Mean Concentration total metabolites (n + 1 through n − 13), Spleen", "setting": "[5]", "result": 2.2, "unit": "µg/g"},
      {"measurement": "Concentrations in the brain", "setting": "lower limit for detection 1 μg/g", "result": "below the limits of detection"}
    ]}
  ]
}
